For one compound, reduction after treatment results are on record in patent publication US10081561B2, “Reduction of hydrogen sulfide and/or malodor gassing from water via the addition of peroxyacetic acid/hydrogen peroxide product” (priority 2013, dated 2018).

Structures are written as SMILES.

The assay relates to aerobe population and SRP population. Briefly: PAA demand study, assumed microbial kill efficiency (FIG. 2). Type of assay: cell-based. Conditions: assumed for FIG. 2. An excerpt: Referring now to FIG. 2 there is shown a graph of one such example. If we assume that in a given system the aerobe population is 1,000,000 per mL and the SRP population is 100,000 per mL and we perform a PAA demand study to understand the microbial kill efficiency we can then determine how much PAA to add to minimize the SRP population without killing so many aerobes that it is detrimental to the waste water plant. This graph assumes that reduction after treatment may be something like: 50% reduction with a 20 ppm PAA treatment, 90% reduction with a 40 ppm treatment, and 99% reduction with a 60 ppm treatment. The goal of treatment would be to suppress the SPR population as much as possible while still allowing a sufficient number of aerobes to survive and move into the waste process.

On to `CC(=O)OO` [PAA, peroxyacetic acid], for which the reduction after treatment reads like this: (20 ppm PAA treatment) around 50%; (40 ppm treatment) around 90%; (60 ppm treatment) around 99%.
